Test results from patent US20090076092A1, “METHOD FOR DISRUPTING REPRODUCTIVE PERFORMANCE OF ARTHROPODS” (priority 2006, published 2009).

Columns and labels:
[1] = test system: diamondback moth; assay: Previous laboratory studies of diamondback moth mortality; type: in vivo; details: Plutella xylostella, read-out: mortality of the diamondback moth (LC20)
Description: (§1) The sub-lethal concentrations or doses used in the various tests for the specific pest species and populations tested in the context of the present invention were estimated from multiple-rate, dose-finding tests to determine the control rates and activity break rates. […] Therefore, depending on the target pest species, either the LC50 or a suitable concentration between LC50 and LC20 was selected as the sub-lethal dose. The specific procedures used to select the respective doses are described in each Test.
(§2) In addition, a control without test compound was included.

[2] = test system: beet armyworm; assay: Preliminary dose-response study on beet armyworm; type: in vivo, Spodoptera exigua; details: beet armyworm adults; estimated from the dose-response curve (12.5, 25, 50 and 100 ppm)
Description: as §1
Sub-lethal concentrations of Compound 1 on beet armyworm were defined based on a preliminary study using rates of 12.5, 25, 50 and 100 ppm.

[3] = test system: Colorado potato beetle, (Leptinotarsa decemlineata Say); assay: Test E: sub-lethal treatments on adult Colorado potato beetles; type: in vivo; details: for Total number of eggs: eggs collected daily for 20 days; for Mean number of viable larvae: larvae that developed to the pupal stage
Method: For evaluating the reproductive performance effects on Colorado potato beetle, (Leptinotarsa decemlineata Say), a colony of potato beetles was cultured in the laboratory on potato plants. The pupae were provided soil material to facilitate pupation. On emergence from the soil, the adult beetles were separated into different cages to avoid initial contact between the male and female beetles. Immediately afterwards, the sex of each adult beetle was determined, and each individual insect was placed in a Petri dish and fed with pieces of excised potato leaves, before being placed in a whole plant-containing test unit for treatment with a test compound solution. Each treatment consisted of twenty adult beetles of the same age (10 males and 10 females), and a pair consisting of a male and female was considered to be a replicate; thus there were 10 replicates per treatment.
Test solutions were prepared by diluting the test compound with acetone to provide the selected sub-lethal concentrations. Treatments included Compound 1 at 6.25 and 25 ppm as well as a control without test compound.
A 15 day-old potato plant with 2 to 3 leaves in a round peat pot was infested with 10 pairs of adult beetles, and the test solution was applied at a spray pressure of 310 kPa using a moving boom tunnel sprayer equipped with one Teejet nozzle, model 8003-EVS and calibrated at speed of 1 m/s and 345 kPa to deliver about 280 L/ha. A piece of filter paper was wrapped around the plant and covered the soil, and the spray nozzle was placed 40 cm above the top of potted plant unit so that the upper surface of the leaves was the only part of the plant contacted with the spray mixture.
After 24 h, one treated male and one treated female were transferred onto a covered container containing a potato plant to allow mating to occur. The test units were held in a growth chamber provided with 16 hours of light per day, 70% relative humidity and 20° C. Daily observations were made to record oviposition data. The eggs deposited by the females were collected daily and counted for 20 days. The collected eggs were then placed in a Petri dish lined with moistened paper filter to prevent dehydration, and maintained in an incubator at 20-24° C. with 16 hours of light per day, 70% relative humidity. The number of hatched eggs and the number of viable larvae that developed to the pupal stage were also recorded. The study was discontinued after the remaining unhatched eggs succumbed to fungal infections and high humidity.

[4] = test system: cotton bollworm; assay: Preliminary dose-response curve on cotton bollworm; type: in vivo, Helicoverpa armigera; details: cotton bollworm adults; preliminary dose-response curve at 10, 25, 50, 80 and 100 ppm
Description: as §1
Sub-lethal rates of Compound 1 on cotton bollworm were estimated based on a preliminary dose-response curve using rates of 10, 25, 50, 80 and 100 ppm. […] Three treatments consisted of test solutions containing Compound 1 at 10, 20 and 30 ppm as well as a control sprayed with water without test compound.

[5] = test system: diamondback moth (Plutella xylostella); assay: Test G: number of eggs (fecundity) of adult diamondback moth; type: in vivo; details: 10 ppm, control itself gave very few eggs
Description: For evaluating the reproductive performance effects on diamondback moth (Plutella xylostella), a minimum of 120 larvae of diamondback moth of each sex were used. Male and female individuals of late instar larvae were separated and caged in individual containers containing Chinese kale. Male diamondback moths were identified by a white dot on the abdomen at the late instar larval stage. When pupae emerged, each pupa was caged separately until it emerged as adult.
as §2
Groups of 40 newly emerged (<24 hours) moths of the same sex were placed inside a meshed cage. The caged adult moths were then sprayed with the test solution, using a CO2 backpack sprayer at 500 L/Ha. For the control treatment, the adults were sprayed with water at a similar spray volume. The groups of treated individuals were then transferred into a clean container with a source of adult diet (i.e. a cotton wick soaked in 10% sucrose solution). Separate containers were used for different groups of treated insects. One day after treatment, the numbers of live, moribund and dead adults were counted. One live treated male and one live treated female were placed together in a copulation cage, which was a 300 mL clear plastic cup covered with nylon screen supplied with an adult diet source of 10% sucrose solution.
Each pair of virgin adults was a replicate, and each treatment consisted of 10 to 20 replicates. Every day each pair of moths was moved to a new cup supplied with a diet of 10% sucrose solution.
The number of eggs laid per female moth was counted daily during the two days when the female moths actively produced viable eggs. The results, listed in Table G, indicate that no meaningful comparative information can be inferred, as the even the Control provided very few eggs per female moth; this indicates a systemic reproduction problem from unknown causes. However, had the Control worked, we expect to see the reproductive performance effects on diamondback moth.

## CNC(=O)c1cc(Cl)cc(C)c1NC(=O)c1cc(Br)nn1-c1ncccc1Cl [Compound 1, 3-bromo-N-[4-chloro-2-methyl-6-[(methylamino)carbonyl]phenyl]-1-(3-chloro-2-pyridinyl)-1H-pyrazole-5-carboxamide]
[1]
  mortality at 10 ppm: ~20%
[2]
  LC20: 12.5 ppm
  LC50: 20 ppm
  LC80: 31 ppm
[3]; 6.25 and 25 ppm
  fecundity and fertility data versus control: not significantly different from the control
[3]; 6.25 ppm
  Mean number of hatched eggs: 188
  Total number of eggs: 271
  Mean number of viable larvae: 95
[3]; 25 ppm
  Mean number of hatched eggs: 219
  Total number of eggs: 287
  Mean number of viable larvae: 117
[4]
  LC20: 18 ppm
  LC50: 33 ppm
[5]; 1 DAT
  No. of eggs per female moth: 0
[5]; 2 DAT
  No. of eggs per female moth: 2.2
